Data as given in the supplement of paper PMC6045584.

Columns and labels:
Experiment in all cases: area under dose-response curve of surviving fraction (unscaled, Aref=0) (surviving fraction x log10(nM)); higher = more resistant
Details in all cases: exposure time: 5 days; dose range 0.5-1000 nM
TIOGUANINE = compound: Nc1nc2[nH]cnc2c(=S)[nH]1 [TIOGUANINE]
Outline: (§1)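 Each tumour cell line was screened three times in 384-well plates, receiving eight inhibitor concentrations from 0.5 to 1000 nM for five days. CellTiter-Glo luminescence gave viability, normalised to DMSO-only wells. Using the drc R package, surviving fractions were fitted with 3-parameter logistic dose-response curves, and the unscaled activity area over log10 dose (Aref = 0) was taken as the area under the curve.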

AFATINIB = compound: CN(C)C/C=C/C(=O)Nc1cc2c(Nc3ccc(F)c(Cl)c3)ncnc2cc1O[C@H]1CCOC1 [AFATINIB]
Outline: as §1

[1] = compound: Cn1cc(C2=Nc3cc(NC(=O)C(N)C4CCCCC4)cc4c3C2=CNNC4=O)cn1
Outline: as §1

SNX-5422 = compound: CC1(C)CC(=O)c2c(C(F)(F)F)nn(-c3ccc(C(N)=O)c(N[C@H]4CC[C@H](OC(=O)CN)CC4)c3)c2C1 [SNX-5422]
Outline: as §1

Test System | area under dose-response curve (TIOGUANINE) | area under dose-response curve (AFATINIB) | area under dose-response curve [1] | area under dose-response curve (SNX-5422)
CHLA90 AUTONOMIC GANGLIA | 3.12 | 2.76 | 2.37 | 2.04
VP229 BREAST | 3.57 | 1.7 | 3.5 | 2.34
NCIH441 LUNG | 3.28 | 3.02 | 2.85 | 2.63
SCC003 HEADNECK | 3.27 | 2.48 | 3.25 | 2.21
RDES SOFT TISSUE |  | 3.88 | 2.71 | 2.11
SUM159 BREAST |  | 3.13 | 3.54 | 2.17
SCC90 HEADNECK | 3.22 | 1.7 | 2.53 | 1.96
MDAMB157 BREAST | 3.03 | 3.17 | 2.88 | 2.28
ZR751 BREAST |  | 2.83 | 2.71 | 2.39
DU4475 BREAST | 2.55 |  | 2.46 | 1.76
SYO1 SYNOVIAL | 2.43 | 2.96 | 1.84 | 1.47
JIMT1 BREAST | 3.25 | 2.62 | 2.96 | 2.23
HCC1806 BREAST | 3.5 | 2.28 | 2.07 | 1.85
HOS BONE | 3.16 | 3.28 | 2.35 | 1.72
HCC1395 BREAST | 3.56 | 3.5 | 2.62 | 3.15
NOS1 BONE | 3.79 | 2.86 | 2.73 | 2.09
MDAMB134 BREAST | 3.2 | 3.16 | 2.44 | 2.8
MDAMB453 BREAST | 3.28 | 2.7 | 2.33 | 2.06
ASKA SYNOVIAL | 3.56 | 3.14 | 2.3 | 2.11
93VU HEADNECK | 3.19 | 1.9 | 3.08 | 2.18
HCC1954 BREAST | 3.09 | 1.86 | 2.06 | 1.62
S68 BREAST | 3.32 | 2.48 | 2.05 | 1.76
HCC78 LUNG | 2.59 | 2.33 | 2.33 | 1.71

Test System | area under dose-response curve (TIOGUANINE) | area under dose-response curve (AFATINIB) | area under dose-response curve [1] | area under dose-response curve (SNX-5422)
VCAP PROSTATE | 3.49 | 3.11 | 2.82 | 2.12
MCF7 BREAST | 2.83 | 3.17 | 2.85 | 2.3
SIHA CERVIX | 3.01 | 3.2 | 3.22 | 2.2
HCC202 BREAST | 4.41 | 1.39 | 2.24 | 2.33
A549 LUNG | 3.21 | 3.35 |  | 2.28
SAOS2 BONE | 3.44 | 3.04 | 2.52 | 1.96
SG43 HEADNECK | 2.96 | 1.3 | 3.31 | 1.7
JURKAT HAEMATOPOIETIC AND LYMPHOID TISSUE | 3.27 | 3.13 | 2.23 | 1.7
SCC47 HEADNECK | 2.97 | 2.35 |  | 2.08
YAMATO SYNOVIAL | 4.3 | 4.09 | 2.58 | 2.53
CADOES1 SOFT TISSUE | 3.12 | 2.94 | 3.08 | 1.95
SUM44 BREAST | 3.39 | 3.18 | 1.84 | 2.47
MFM223 BREAST | 3.53 | 3.2 | 2.38 | 2.02
MDAMB436 BREAST | 2.8 | 2.99 | 2.31 | 2.16
SJSA1 BONE | 3.46 | 3.26 | 3.02 | 2.07
MG63 BONE | 3.29 | 3.27 | 2.46 | 2.18
HCC70 BREAST | 3.37 |  | 2.23 | 2.19
MDAMB361 BREAST | 2.95 | 2.35 | 1.88 | 2.27
SG32 HEADNECK | 3.59 | 2.94 | 2.65 | 1.98
SKBR3 BREAST | 3.36 | 0.986 | 2.39 | 2.08
HT1080 SOFT TISSUE | 3.16 | 3.25 | 2.6 | 2.11
SG27 HEADNECK | 3.34 | 3.13 | 3.1 | 2.78
143B BONE | 3.27 | 3.29 | 2.8 | 2.02

Test System | area under dose-response curve (TIOGUANINE) | area under dose-response curve (AFATINIB) | area under dose-response curve [1] | area under dose-response curve (SNX-5422)
CME SYNOVIAL | 3.97 | 4.36 |  | 2.5
T47D BREAST | 3.35 | 3.42 | 3.35 | 2.33
SUM149 BREAST |  | 1.98 | 1.97 | 1.7
HELA CERVIX | 3.36 | 3.69 | 3.79 | 2.79
MHM BONE | 3.29 | 3.27 | 2.98 | 2.48
BT549 BREAST | 3.29 | 3.09 | 2.19 | 1.94
U2OS BONE | 3.25 | 3.19 | 2.85 | 2.17
COLO320DM LARGE INTESTINE | 3.52 | 3.24 | 3.21 | 2.19
22RV1 PROSTATE | 3.28 | 3.06 | 2.97 | 1.82
SG28 HEADNECK | 3.45 | 1.78 | 2.64 | 2.19
OS25HAL BONE | 3.21 | 3.28 | 2.71 | 2.27
NY BONE | 3.27 | 3.1 | 2.01 | 1.89
KPD BONE | 3.35 | 3.02 | 2.3 | 1.89
G292 BONE | 3.25 | 3.06 | 2.19 | 2.01
SUM149.B1*.S BREAST | 3.25 |  | 3.05 | 2.31
CAL51 BREAST | 3.31 | 3.19 | 2.86 | 1.93
LM7 BONE | 3.33 | 2.89 | 2.46 | 1.88
HCC38 BREAST | 3.75 | 3.94 | 1.69 | 1.97
SG31 HEADNECK |  | 2.04 | 2.91 | 2.1
OSHN BONE |  | 3.58 | 2.6 | 2.25
CASKI CERVIX | 3.1 | 0.986 | 2.04 | 1.63
HS578T BREAST | 3.13 |  | 2.39 | 2.21
